Values quoted from earlier work in patent publication US6409991B1, “Treatment and system for nicotine withdrawal” (priority 1999, dated 2002).

In the case of `CN1CCCC1c1cccnc1` (stereo not shown) [nicotine], the plasma half-life is given as “approximately two”.
